Source: a melting point compilation (Tetko et al.; mined from patent text by program, amines drawn as free bases though some values may be those of a salt)

Row | Structure (SMILES) | melting point [°C]
1 | c1ccc(N2CCN(c3nsc4ccccc34)CC2)cc1 | 260 to 262
2 | CC(=O)OCC(=O)C1C(C)CC2C3CC(F)C4=CC(=O)C=CC4(C)C34OC4CC21C (stereo not drawn) | 154 to 162
3 | CCOC(=O)C(=CNc1ccnn1Cc1ccco1)C(=O)c1ccccc1 | 75 to 77
4 | CCOC(=O)C(N=C(c1ccccc1)c1cc(Cl)ccc1NC)C(=O)OCC | 88
5 | COc1ccc(COC(=O)c2cc([N+](=O)[O-])c3ccccc3c2OS(=O)(=O)C(F)(F)F)cc1 | 74 to 75
6 | Cc1nc2ccc(N(C)C)nn2c1S(N)(=O)=O | 227
7 | COc1ccc2c(c1)C13CCN(C#N)C(C2)C1CCC(=O)C3 (stereo not drawn) | 211 to 214
8 | Nc1ccccc1SC(F)(F)F | 30 to 31
9 | Cn1c(C(O)(C(F)(F)F)C(F)(F)F)cc(-c2ccc(F)cc2)c1-c1ccc(F)cc1 | 130 to 131
10 | O=C(O)c1cc(F)c(F)c(OC(F)F)c1F | 68 to 70
11 | CCCCCCCCOc1ccc(-c2ccc(C(C)O)cc2)cc1 (single isomer, unassigned; (-)) | 124
12 | CCN(CC)CCN1C(=O)C(C)(C)N=C(c2ccccc2Cl)c2cc([N+](=O)[O-])ccc21 | 70
13 | O=C(Nc1ccc(CN2C(=O)[C@H]3CCC[C@H]3Nc3ccccc32)cc1)Oc1ccccc1 (relative stereo) | 183 to 184
14 | CCOC(=O)c1ccc(NCCCOc2ccccc2)cc1 | 73 to 74
15 | O=C1C2CCCCC2C2(c3ccccc3)NCCN12 (stereo not drawn) | 170
16 | CC1CCCN1CCN1CCN(CCCN2CCCCC2)C1=C(C#N)C#N (stereo not drawn) | 84 to 86
17 | CC(C)S(=O)(=O)c1ccc(Oc2ccc(Cl)c(Cl)c2)nc1 | 91 to 92
18 | COc1cc(C(=O)C=Cc2ccccn2)cc(OC)c1OC | 94 to 95
19 | CSc1ncc(-c2ccccc2)c(Cl)n1 | 99
20 | COc1cc(NC(=O)Nc2ccccc2C)cc(OC)c1-c1ccc(C[C@H](NC(=O)c2c(Cl)cccc2Cl)C(=O)O)cc1 | 194 to 195
21 | Cc1ccc(CN2Cc3cncn3CC2=O)cc1 | 105 to 108
22 | COC(=O)C1CC1c1ccc(O)cc1 (stereo not drawn) | 69 to 71
23 | Nc1ccc(Sc2cc(F)cc(F)c2)c(Cl)c1 | 156 to 158

Row | Structure (SMILES) | melting point [°C]
24 | C=CCc1c(OC)cc(OC)cc1C(=O)O | 109 to 111
25 | N#CCC1CCN1C(c1ccccc1)c1ccccc1 (stereo not drawn) | 82 to 85
26 | C#Cc1cc(Nc2ncnc3cnc(N)cc23)ccc1F | 218 to 222
27 | O=C(N1CCN(c2ccncc2Cl)CC1)N1CCN(S(=O)(=O)c2ccc(F)cc2)CC1 | 143 to 144
28 | COC(=O)[C@H](CCCCNC(=O)c1csc(NC(=O)NCc2ccccc2)n1)NC(=O)OC(C)(C)C | 166
29 | O=P(O)(O)C(O)(Cc1c[nH]cn1)P(=O)(O)O | > 290
30 | O=C(O)Cc1ccc(CCOc2ccc(CC3SC(=O)NC3=O)cc2)nc1 (stereo not drawn) | 144 to 145
31 | C=C(CCCCC)C(=O)c1ccc(OCC(=O)O)c(Cl)c1Cl | 103 to 106
32 | COc1cc(Cl)ccc1C(=O)Nc1ccc(C(=O)N2Cc3cccn3Cc3ccccc32)cc1 | 222 to 224
33 | O=C(O)Cc1ccccc1CBr | 110
34 | O=S1(=O)N=C(n2ccnc2)Nc2ccc(C(F)(F)F)cc21 | 211 to 214
35 | O=C(O)c1ccc(-c2ccnc(-c3cc(-c4ccc(C(=O)O)s4)ccn3)c2)s1 | > 300
36 | COc1ccc(COC(=O)NC(CO)Cc2ccc(O)cc2)cc1 (stereo not drawn) | 139 to 141
37 | CC(C)Oc1ccc(CCCCC2OC(=O)NC2=O)cc1 (stereo not drawn) | 81 to 82
38 | CC(C)(C)OC(=O)NC1COCCCC=CC2CC2(C(=O)NS(=O)(=O)C2CC2)NC(=O)C2CC(OC(=O)Nc3ccccc3Oc3ccccc3)CN2C1=O (stereo not drawn) | 151 to 153
39 | CC(=O)OC1CSC(Oc2cncc(S(=O)(=O)c3ccc(F)cc3)c2)C(OC(C)=O)C1OC(C)=O (stereo not drawn) | 128
40 | CCOC(=O)Nc1ccc(C23CC4CC(CC(C4)C2)C3)cc1 | 132 to 134
41 | CC(CCCC1(C(=O)NCC(F)(F)F)c2ccccc2-c2ccccc21)N1CCC(NC(=O)OC(C)(C)C)CC1 (stereo not drawn) | 58 to 60
42 | Cc1cccc(NC(=O)NC2N=C(c3ccccc3F)c3ccccc3N(Cc3ncccc3C(N)=O)C2=O)c1 (racemic) | 203
43 | COc1ccc(OC)c(C=CC(=O)C=Cc2cc(OC)ccc2OC)c1 | 103 to 104
44 | C#CCn1ccn(C)c1=O | 69 to 72
45 | COc1ccc(CN(C)CCCCc2ccc(NC(=O)c3cccc4c(=O)cc(-c5ccccc5)[nH]c34)cc2)cc1OC | 171

The next lines start with the values.

Row | melting point [°C] | Structure (SMILES)
46 | 262 | N#Cc1ccc(C(=O)N[C@H]2CC[C@H](CCN3CCN(c4nccc5c4OCC5)CC3)CC2)cc1
47 | 162 to 164 | CC(=O)NC(C(=O)OCc1cc(C)cc(C)c1)C1c2ccccc2-c2ccccc21 (stereo not drawn)
48 | 126 to 128 | Cc1c(C)c2c(c(C)c1N)CC(C)(CN1CCC(c3ccncc3)CC1)O2 (stereo not drawn)
49 | 100 to 101 | Cc1sc(-c2ccccc2)nc1COc1ccc(CCl)cc1
50 | 199 | Cn1cnc([N+](=O)[O-])c1NCCN1CCC(Nc2nc3cccnc3n2Cc2ccc(F)cc2)CC1
51 | 169 | Cc1nc2ccc(N3CC4CNCC4C3)nn2c1-c1ccnc(CN)c1 (stereo not drawn)
52 | 37 to 51 | COC(=O)CCc1cc2cc(C(=O)c3ccccc3)ccc2n1S(=O)(=O)c1ccccc1
53 | 85 to 86 | CSc1ccc(C)c2onc(OCCNC(=O)OC(C)(C)C)c12
54 | 220 to 223 | O=C(C1Cc2ccccc2N1c1ncccn1)N1CCCC1 (stereo not drawn)
55 | 161 to 163 | COc1cc(N(C)C)c(Cl)cc1C(=O)NCC1CN(Cc2ccc(C#N)cc2)CCO1 (stereo not drawn)
56 | 100 to 102 | CN1CCN2CCNC2(c2ccccc2)c2cc(Cl)ccc21 (stereo not drawn)
57 | 158 to 160 | C#CCc1c(C)nc2c(OCc3c(C)cccc3NC(=O)C(C)=O)cccn12
58 | 158 to 161 | Cc1cc(-c2cccc(C#N)c2)c(C(=O)NCCN2CCOCC2)c(C)n1
59 | 143 to 146 | COc1ccccc1Cn1c(=O)[nH]c2cc(Cl)cc(Cl)c2c1=O
60 | 78.1 to 79.9 | COCCc1nc2c(N)nc3ccccc3c2n1CCCCNC(=O)c1ccc2ccccc2n1
61 | 205 to 206 | COCOc1ccccc1-c1cc(-c2ccc(C(=O)O)cc2)c(C#N)c(NC(=O)c2cccs2)n1
62 | 174 to 176 | COC(=O)Cn1cc2c(c1C)-c1ccc(Cl)cc1C(c1ccccc1Cl)=NC2
63 | 149 to 150 | CC(C)(C)OC(=O)N1CCC(c2ccc(COc3ccc([N+](=O)[O-])cc3)nc2)CC1
64 | 268 to 272 | Cn1ccnc1Sc1ccc(Nc2c(C#N)cnc3cc(F)ccc23)cc1Cl
65 | 119 to 121 | Cc1ccc2c(c1)c1c(n2C(=O)c2ccccc2)CCCC1C(=O)OCc1ccccc1 (stereo not drawn)
66 | 99 to 100 | CCNC(=O)Oc1ccc2c(N(C)CCN3CCOCC3)noc2c1
67 | 160 to 162 | COc1ncnc(-c2cc(NS(C)(=O)=O)c(Cl)cc2Cl)c1C#N
68 | 198 to 200 | COc1c(C2CCN(CCCCNC(=O)c3sc(-c4ccc(Cl)cc4)nc3CO)CC2)ccc2c1CCCC2
